Measurements as given in BindingDB's records for PubMed 38252989 (IK Gujral Punjab Technical University).

What follows are compounds tested against T1, Alpha-amylase 1A (Homo sapiens, UniProt P0DUB6) (assay: Inhibition of Alpha-amylase (unknown origin)).
T1 sequence (P0DUB6 whole entry): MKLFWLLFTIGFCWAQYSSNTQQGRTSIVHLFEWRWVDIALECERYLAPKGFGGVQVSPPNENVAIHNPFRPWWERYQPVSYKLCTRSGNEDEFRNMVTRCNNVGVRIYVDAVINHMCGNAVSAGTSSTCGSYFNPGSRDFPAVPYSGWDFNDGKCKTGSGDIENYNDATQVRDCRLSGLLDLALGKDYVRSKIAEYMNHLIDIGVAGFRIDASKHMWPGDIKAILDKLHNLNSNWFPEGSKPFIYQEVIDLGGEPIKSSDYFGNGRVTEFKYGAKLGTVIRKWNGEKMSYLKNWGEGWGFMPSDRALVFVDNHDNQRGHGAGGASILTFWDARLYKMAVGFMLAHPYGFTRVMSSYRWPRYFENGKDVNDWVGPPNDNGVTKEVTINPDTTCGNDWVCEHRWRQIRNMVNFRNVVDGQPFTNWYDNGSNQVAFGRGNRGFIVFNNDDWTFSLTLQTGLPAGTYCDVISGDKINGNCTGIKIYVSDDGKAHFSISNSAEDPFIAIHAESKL
For `O=C(O)CN1C(=O)SC(=Cc2ccc3c(c2)OCO3)C1=O`, the IC50 was 10 nM. `C=CCN1C(=O)SC(=Cc2ccc(Cl)cc2Cl)C1=O` showed an IC50 of 44 nM. With `O=C(O)CN1C(=O)SC(=Cc2cn(-c3ccccc3)nc2-c2ccc([N+](=O)[O-])cc2)C1=O` the IC50 was 4.1 nM. Compound `N#Cc1ccccc1-c1ccc(N2C(=O)SC(=Cc3ccccc3Oc3ccccc3)C2=O)cc1` has an IC50 of 0.13 nM.
